Bridges are numbered along the chain shown (N, C = ends). Where no end group is shown, it is not given here.
Tests used:
PC12 cells [1] = test: Toxicity to PC12 cells; format: cell-based, rat; conditions: 100 μM
Description: (§1) Effects of divalent ions on NGF mediated survival and toxicity was evaluated using a colorimetric assay for the lysosomal enzyme acid phosphatase to determine cell number (Connolly, D. T., Knight, M. B., Harakas, N. K, Wittwer, A. J. & Feder, J. Determination of the number of endothelial cells in culture using an acid phosphatase assay. Anal. Biochem. 152, 136-140 (1986); Ueda, Y., Walsh, E., Nakanishi H. & Yoshida, K. A. colorometric assay method for the evaluation of neurotrophic activity in vitro. Neurosci. Lett. 165, 203-207 (1994)). […] To evaluate toxicity, the cells were seeded and maintained without NGF in RPMI with 10% heat inactivated donor horse serum and 5% fetal calf serum in the presence of additives. Loss in viable cell number was determined and expressed as a percent of control. NGF rescues PC12 cells from cell death in serum-free medium(Greene, L. A. Nerve growth factor prevents the death and stimulates neuronal differentiation of clonal PC12 pheochromocytoma cells in serum-free medium. J. Cell Biol. 78, 747-755 (1978)). NGF-dependent survival was assessed by harvesting PC12 cells in balanced salt solution followed with washing by 4 cycles of suspension and centrifugation in serum-free RPMI prior to seeding in 96 well plates. After incubation with additives, medium was removed from the wells and cells washed once with 200 μl PBS. Buffer containing 0.1M sodium acetate pH 5.5, 0.1% Triton X-100 and 10 mM p-nitrophenyl phosphate (Sigma 104 phosphatase substrate) was added to each well (100 μl). Plates were incubated at 37° C. for 3 hours. The reaction was stopped by the addition of 10 μl/well of 1N sodium hydroxide and the color development measured at 405 nm using a microplate reader. The relationship between cell number and enzyme activity was linear over the range 1000 to 15,000 cells.
(§2) To explore the ability of other transition metals to influence the biological activities of NGF, a series of cations known to mimic in certain respects the binding of zinc to proteins were tested. […] For this reason these ions were not tested in NGF- dependant growth phenomena. […] As these studies appeared to indicate potentially complex results upon metal ions binding to NGF, a receptor crosslinking system where specific receptor types could be identified was utilized.

PC12 cells [2] = test: NGF-dependent survival of PC12 cells; format: cell-based, rat; conditions: for Antagonism of NGF-dependent survival: high (1 nM) or low (50 pM) NGF; for Survival @ 50 pM NGF / Survival @ 1 nM NGF: rat, pc12 cells, 100 µM
Description: as §1, §2

p75^NTR /TrkA = test: Receptor crosslinking of 125I-NGF with transition metal ions (receptor selectivity); format: binding
Chain of p75^NTR /TrkA (P01139 122-239): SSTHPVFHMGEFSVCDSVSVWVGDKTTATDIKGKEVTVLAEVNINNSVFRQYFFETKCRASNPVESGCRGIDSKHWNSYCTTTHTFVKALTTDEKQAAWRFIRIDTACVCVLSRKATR
Chain of p75^NTR /TrkA (P07174 30-425 partner): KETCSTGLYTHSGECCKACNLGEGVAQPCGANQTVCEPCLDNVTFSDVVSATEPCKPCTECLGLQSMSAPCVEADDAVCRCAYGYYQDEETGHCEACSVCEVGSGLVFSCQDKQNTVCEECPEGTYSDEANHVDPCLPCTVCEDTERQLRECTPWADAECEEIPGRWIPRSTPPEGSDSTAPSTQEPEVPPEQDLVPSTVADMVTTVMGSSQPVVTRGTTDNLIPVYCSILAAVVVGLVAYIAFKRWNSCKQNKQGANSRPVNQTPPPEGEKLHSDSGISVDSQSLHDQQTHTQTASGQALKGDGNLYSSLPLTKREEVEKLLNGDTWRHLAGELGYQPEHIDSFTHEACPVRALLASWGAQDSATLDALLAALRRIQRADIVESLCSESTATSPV
Chain of p75^NTR /TrkA (P35739 33-799 partner): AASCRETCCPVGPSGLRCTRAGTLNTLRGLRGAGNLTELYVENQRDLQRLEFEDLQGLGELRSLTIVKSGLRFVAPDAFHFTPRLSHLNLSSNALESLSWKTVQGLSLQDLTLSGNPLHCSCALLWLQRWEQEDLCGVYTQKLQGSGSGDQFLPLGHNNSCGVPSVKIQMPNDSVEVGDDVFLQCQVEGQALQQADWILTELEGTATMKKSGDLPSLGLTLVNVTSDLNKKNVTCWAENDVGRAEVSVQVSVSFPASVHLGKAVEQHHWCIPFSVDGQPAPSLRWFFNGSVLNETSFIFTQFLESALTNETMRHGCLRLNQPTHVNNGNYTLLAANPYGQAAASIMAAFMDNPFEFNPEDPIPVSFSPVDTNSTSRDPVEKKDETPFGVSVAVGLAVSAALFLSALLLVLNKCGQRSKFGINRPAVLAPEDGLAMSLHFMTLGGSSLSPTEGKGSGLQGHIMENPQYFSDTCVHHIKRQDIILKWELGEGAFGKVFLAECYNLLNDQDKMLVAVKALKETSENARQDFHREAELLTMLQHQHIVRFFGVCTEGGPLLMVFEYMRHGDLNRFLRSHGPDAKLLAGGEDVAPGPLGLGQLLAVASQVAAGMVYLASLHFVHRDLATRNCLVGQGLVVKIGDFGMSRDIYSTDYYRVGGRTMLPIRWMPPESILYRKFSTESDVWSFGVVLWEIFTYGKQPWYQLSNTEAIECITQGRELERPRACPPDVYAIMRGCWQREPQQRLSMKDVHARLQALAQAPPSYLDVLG
Description: as §2

p75^NTR and TrkA [3] = tested on: T1, p75^NTR and TrkA; test: Binding of 125I-NGF to PC12 cells (p75NTR + TrkA); set-up: species or system rat
T1 construct: these cells express both NGF receptor types; endogenous in cells; host or cells: PC12 rat pheochromocytoma cells
T1 sequence (P01139 122-239): as the sequence (P01139 122-239) above
Description: (§3) PC12 cells were grown in RPMI with 10% heat inactivated donor horse serum and 5% fetal calf serum. […] The tubes were incubated for 2 hr at 4° C. and 100 μl aliquots (providing triplicate data points for each sample) were transferred to 400 μl microcentrifuges containing 200 μl of 10% glycerol in HKR. Tubes were centrifuged for 2 minutes at 5,000 rpm, the tip containing the cell pellet cut off and radioactivity bound to the cells was determined.

p75^NTR and TrkA [4] = target: T2, p75^NTR and TrkA (Mus musculus, UniProt P01139); test: Binding of 125I-NGF to PC12 cells (p75NTR + TrkA); set-up: species or system rat; conditions: for Total Binding to PC12 cells: 100 μM, 125I-NGF, 120 min
T2 construct: these cells express both NGF receptor types; endogenous in cells; host or cells: PC12 rat pheochromocytoma cells
T2 sequence (P01139 122-239): as above
Description: as §3

NGF [5] = target: T3, NGF (Mus musculus, UniProt P01139); test: NGF protomer crosslinking with BS3 (NGF conformation), metal ions; format: biochemical; conditions: for NGF Protomer Conformation (active/inactive): 100 μM
T3 construct: homodimer
T3 sequence (P01139 122-239): as above
Description: For crosslinking NGF […], 0.4 mM BS^3 was added to the mixture and incubated for 30 minutes at 25° C. […] For CD studies, NGF (50 μg/ml) was dissolved in 50 mM Tris-HCl buffer and spectra recorded using a computer controlled Jasco J-600 spectropolarimeter. Samples were acquired in the absence or presence of Zn^2+ (100 μM) at 22° C. in a 2 mm quartz cell averaged over eight scans. Modification of His residues by DEPC was carried out as previously described, where the molar excess of DEPC added and the extent of reaction was determined by evaluating the loss of binding activity of the modified product.

[6] = tested on: dorsal root ganglion (DRG) neurons; test: NGF-dependent neurite growth of ED8 chick DRG neurons (FIG. 6, Terasaki plates); format: cell-based; conditions: concentrations up to 200 μM
Description: FIG. 6 is a graph showing the ability of R11 to inhibit the activity of NGF in vitro using a biological assay system. […] Dissociated cells enriched for sensory neurons were prepared from embryonic day 8 (ED8) chick dorsal root ganglion (DRG) as described (Sutter et al., J. Biol. Chem. 254: 5972-5982 (1979)). Neurons were seed into wells of Terasaki plates treated sequentially with poly-D-lysine and laminin at a density of 800-1000 cells/well in "synthetic" Dulbecco's modified Eagle medium (Bottenstein et al., Proc. Natl. Acad. Sci. USA 76: 514-517 (1979)) containing 1% fetal calf serum and NGF at […]. The cells were incubated with the additives indicated at 37° C. in a 5% CO2 atmosphere At 18-20 hours, the cells were fixed in 4% formaldehyde in phosphate-buffered saline and scored for neurite growth. The cells on the entire lower horizontal surface of the well were counted using an inverted microscope fitted with phase contrast optics. A neurite was scored if its caliber from origin to terminal was constant and its length was equal to or greater than 1.5 cell body diameters. Neurite growth was corrected for background (no NGF) growth in the presence and absence of peptide.
Such a profile is not typical of a competitive inhibitor. That is, a different dose response profile would be expected if R11 were simply competing with NGF for binding to a receptor. Neither of the less constrained synthetic Intermediates of R11, i.e., R11 (linear) or R11 (monocyclic), was as effective in blocking NGF-dependent neurite growth concentrations up to 200 μM.

p75 = test: Affinity cross-linking of 125I-NGF to p75 on PC12 cells; format: binding, rat; conditions: for Inhibition of p75 Interaction: 200 μM peptide, 0.1 nM 125I-NGF, PC12 cells
Description: The ability of the peptides under study to interfere with binding of NGF to NGF receptors was evaluated by analysis of inhibition of the chemical cross-linking of ^251 I-NGF to the common neurotrophin receptor p75 (Chao, J. Neurobiol. 25:1373-1385 (1994)) and the specific NGF receptor TrkA (Barbacid, J. Neurobiol. 25: 1386-1403 (1994)). Immunoprecipitation and polyacrylamide gel electrphoresis of cross linked receptors allowed identification of both receptors, as shown in FIG. 7A. […] At concentrations of 200 μM, neither R11(l) nor R11(m) were able to inhibit greater than 50% of the observed ^125 I-labelling.
The ability of the peptides derived from the 68-58/108-110 region of NGF to antagonize NGF interaction with the p75 and TrkA receptors was determined The peptides tested were bicyclic (BC) 68-58/108-110, cyclic (C) 68-58/108-110, and linear (L) 68-58/108-110, each of which are illustrated in FIGS. 2 and 5D
Receptor cross-linking studies were performed on PC12 rat pheochromocytoma cells (ATCC CRL 1721; Greene et al., Proc. Natl. Acad. Sci. USA 73: 2424-2432 (1976)) which were maintained in RPMI1640 (Gibco) supplemented with 10% fetal calf serum (Gibco). Cells were harvested by incubation and trituration in Ca^2+ and Mg^2+ free Gey's balanced salt solution, washed and suspended in 10 mM HEPES buffer (pH 7.35) containing 125 mM NaCl, 4.8 mM KCl, 1.3 mM CaCl2, […], 1.2 mM KH2 PO4, 1 g/L sucrose and 1 g/L bovine serum albumin (HEPES Krebs Ringer buffer, HKR buffer) at 10^6 cells/mL. Subsequent procedures were carried out at 4° C. unless otherwise noted.
For receptor crosslinking, ^125 I-NGF was prepared by the method of Sutter et al. (J. Biol. Chem. 254: 5972-5982 (1979)) from NGF isolated from mouse submaxillary gland (as described in Mobley et al., Biochemistry 15:1543 (1976)) obtained from Cedarlane.
[…] Control PC12 cells were incubated in HKR buffer in the presence of ^125 I-NGF only (no NGF peptide).
Receptor proteins were cross-linked with either 0.4 mM bis(sulfosuccinimidyl)suberate (BS^3, Pierce) for TrkA, or a combination of 2 mM […] (EDC) and 2 mM N-hydroxysulfosuccinimide (S-NHS) for p75^NTR as indicated. All cross-linking agents (from Pierce) were dissolved in water and added in 20 μL aliquots and the reaction allowed to proceed for 30 min at 25° C. On completion of the cross-linking reaction, the cells were washed three times in HKR buffer with BSA at 4° C. to remove excess free radiolabelled ligand and reagents. The cells were solubilized in 100 μL SDS sample buffer Samples were separated on a modified Laemmli discontinues acrylamide gel system (Laemmli, Nature 227:680 (1970)) using 4% SDS-PAGE stacking gel and a gradient urea polyacrylamide separating gel ranging from 4.5% acrylamide/18% urea to 7.5% acrylamide/48% urea. The gels were fixed and processed for autoradiography using -70° C. exposure with Kodak XAR film and manual processing (FIG. 7B).
For positive receptor identification, immunoprecipitation studies were performed. Samples of 10^7 cells in 1 mL HKR buffer were cross-linked under the conditions described above, washed in HKR buffer and solubilized in non-denaturing lysis buffer (1% NP40, 10% glycerol, 1 mM phenylmethylsulfonylfluoride, 10 μg/mL leupeptin and 0.5 mM o-vanadate in Tris-buffered saline) (Kaplan et al., Nature 350:1 158-160 (1991)). The solutions were clarified by centrifugation and immunoprecipitated with either mAb 192 (monoclonal antibody for p75; Cedarlane) or rabbit anti-TrkA, which had been raised against a COOH-terminal peptide of TrkA. The ^125 I-NGF cross-linked receptor-antibody complexes were isolated using 50 μL of a 50% solution of rabbit anti-mouse agarose (Sigma; for mAb 192) or protein A-Sepharose (Pharmcia; for anti-Trk) equilibrated in lysis buffer. Immunoprecipitates were washed three times in lysis buffer and the pellets denatured in SDS reducing sample buffer. […]

NGF [7] = target: T3, NGF; test: Cross-linking of NGF protomers in a cell-free system (Example 6); format: biochemical; conditions: R11 analogues, concentration not given

Compound	Toxicity (PC12 cell viability) (PC12 cells [1]) [% control]	Survival @ 50 pM NGF (PC12 cells [2]) [% control]	Survival @ 1 nM NGF (PC12 cells [2]) [% control]	Blocking of NGF binding to TrkA and p75NTR in receptor crosslinking (p75^NTR /TrkA)	Total Binding to PC12 cells (p75^NTR and TrkA [4]) [% control]	NGF Protomer Conformation (active/inactive) (NGF [5])	further results
[Cu+2] [Cu^2+]	74 ± 10	-2 ± 19	-6 ± 8	blocked binding to both receptors	-16 ± 7	active	Antagonism of NGF-dependent survival (PC12 cells [2]): ability to antagonize the NGF-dependant survival; Prevention of 125I-NGF binding to PC12 cells (p75^NTR and TrkA [3]): ability to prevent binding
CCOC(=O)OC(=O)OCC [DEPC, diethyl-pyrocarbonate, reference compound]	–	–	–	–	–	–	Receptor binding activity of NGF modified with DEPC (p75^NTR and TrkA [4]): loss in receptor binding activity; Protomer crosslinking efficiency of NGF modified with DEPC (NGF [5]; no Zn2+): reduction in protomer crosslinking efficiency
[Mn+2] [Mn^2+]	82 ± 4	91 ± 5	59 ± 24	did not have a significant effect	95 ± 24	inactive	–
[Pd+2] [Pd^2+]	75 ± 6	82 ± 9	125 ± 48	blocked binding to both receptors	-5 ± 1	active	Prevention of 125I-NGF binding to PC12 cells (p75^NTR and TrkA [3]): ability to prevent binding
[Pt+2] [Pt^2+]	93 ± 6	74 ± 21	92 ± 35	blocked binding to both receptors	68 ± 11	active	Antagonism of NGF-dependent survival (PC12 cells [2]): ability to antagonize the NGF-dependant survival
NH2 -Cys-Gly-Ser-Glu-Val-Pro-Asn-Ser-Ala-Arg-Cys-Cys-Val-Cys-OH (H-CGSEVPNSARCCVC-OH; not fully specified; printed as NH2 -Cys-Gly-Ser-Glu-Val-Pro-Asn-Ser-Ala-Arg-Cys-Cys-Val-Cys-OH; cysteine pairing not given here) [R11(l), linear peptide R11]	–	–	–	–	–	–	Blocking of NGF-dependent neurite growth [6]: Neither of the less constrained intermediates R11(l) or R11 (m) were effective; Inhibition of the observed 125I-labelling (p75) (p75; 200 μM): ≤ 50%; Inhibition of p75 Interaction (p75; listed as L): no inhibition
NH2 -Cys-Gly-Ser-Glu-Val-Pro-Asn-Ser-Ala-Arg-Cys-Cys-Val-Cys-OH (H-CGSEVPNSARCCVC-OH; not fully specified; printed as NH2 -Cys-Gly-Ser-Glu-Val-Pro-Asn-Ser-Ala-Arg-Cys-Cys-Val-Cys-OH; cysteine pairing not given here) [R11(m), monocyclic R11 with a single disulfide bond]	–	–	–	–	–	–	Inhibition of p75 Interaction (p75; listed as C): no inhibition
SR11: identical amino acid composition to R11 except that the eleven N-terminal residues have been inverted to the naturally occurring NGF sequence 58-68 (CRASNPVESGCCVC; disulfide 1-14, 11-12)	–	–	–	–	–	–	Cross-linking of NGF promoters (NGF dimer disruption assay) (NGF [7]): equally etude in reducing crosslinking of NGF promoters as R11

Reference: US6291247A, “Methods of screening for factors that disrupt neurotrophin conformation and reduce neurotrophin biological activity” (priority 1996, dated 2001)
